Measurements as given in patent US20220023316A1, “METHODS FOR THE TREATMENT OF DEPRESSION” (Praxis Precision Medicines, Inc., priority 2018, published 2022).

Columns and labels:
[1] = Safety and tolerability in healthy subjects (Cohorts 1-3); format: in vivo, human
Description: Blood and urine were obtained during each treatment period at designated times for PK and other analyses (see below). Standard safety assessments were measured during each treatment period.

[2] = human, in vivo
Description: (§2) Healthy subjects aged 18 to 55 years were treated with an oral suspension of Compound 1 to study the safety, tolerability, pharmacokinetics and pharmacodynamics of Compound 1 in healthy subjects.
(§3) The study was a randomized, double-blind, placebo-controlled multiple escalating dose study comprised of 3 cohorts that each received an oral suspension. Each cohort consisted of two groups: one group treated with Compound 1 and another treated with placebo. In each cohort, the ratio of Compound 1-treated subjects to placebo-treated subjects was 3:1.
(§4) The Compound 1-treated subjects of Cohort 1 were treated with 15.0 mg of Compound 1 once per day (QD). The Compound 1-treated subjects of Cohort 2 were treated with 30.0 mg of Compound 1 QD. The Compound 1-treated subjects of Cohort 3 were treated with 60.0 mg of Compound 1 QD.
(§5) Patients in each cohort were treated with Compound 1 for 14 consecutive days, unless dosing was halted by the Safety Review Committee (SRC). The dosing of subjects in each of the cohorts was staggered with the decision to dose escalate based on SRC review of a minimum of 14 days of observation of safety and tolerability data and review of the available plasma PK data from the preceding cohort(s).
(§6) Compound 1 was administered under fasted conditions (no food or drink, except water, for at least 10 hours prior to dosing). Immediately after administration of Compound 1, the subject was be administered 240 mL water. No additional fluid intake was allowed until 1 hour after Compound 1 administration.
(§7) Cohort 1 subjects received a single 15.0 mg dose of a Compound 1 suspension on the morning of Days 1-14. Cohort 2 subjects received a single 30.0 mg dose of a Compound 1 suspension on the morning of Days 1-14. Cohort 3 subjects received a single 60.0 mg dose of a Compound 1 suspension on the morning of Days 1-14. For all cohorts, the last treatment was administered on the morning of Day 14.
(§8) PK parameters (e.g., Cmax, Tmax, T1/2, AUC, etc.) for healthy patients in each cohort was compared to assess the suitability of Compound 1 suspension for the treatment of MDD. Data were obtained from the blood plasma samples collected from each cohort according to the schedule provided.
(§9) Plasma samples were analyzed to determine Compound 1 concentrations using a validated assay method. Pharmacokinetic variables (including but not limited to Cmax, Tmax and AUC(0-last)), were calculated using non-compartmental analysis. PK parameters for Compound 1 were derived from the plasma concentration data using non-compartmental analysis with Phoenix™ WinNonlin® v 8.0 (Pharsight Corporation, USA).
(§10) Blood (Cohorts 1-3): For each cohort, blood samples were collected on Days 1, 2, 3, 4, 5, 6 and 14 at the following time points: Day 1 at pre-dose (0 hour), 0.25, 0.5, 0.75, 1, 1.5, 2, 2.5, 3, 4, 6, 8, 12, 16 h post-dose; Day 2 at pre-dose (24 h), Day 3 at pre-dose (48 h), Day 4 at pre-dose (72 h), Day 5 at pre-dose (96 h), Day 6 at pre-dose (120 h); Day 14 at pre-dose 0.25, 0.5, 0.75, 1, 1.5, 2, 2.5, 3, 4, 6, 8, 12, 16, 24, 36, 48, and 72 hours. Trough level blood samples were collected on Days 2, 3, 4, 5, 6 and 14, prior to the morning dose administrations.
(§11) Descriptive statistics were calculated for plasma and urine PK parameter and concentration data, and summarized by study day and time point. Arithmetic means, coefficient of variation (CV), standard deviation, median, minimum, and maximum values, and number of observations were calculated for all PK parameters and trough concentration data. Except for Tmax, the geometric mean, geometric standard deviation, and geometric CV were provided for all PK parameter and concentration data.

[3] = tested on: severe major depressive disorder (MDD); experiment: Open-label study in patients with severe MDD, Part A efficacy (HAM-D); format: in vivo, human
Description: The study is an open-label, study comprised of two dosing periods, Part A and Part B, during which patients were treated with an oral suspension of Compound 1. Part A was an open-label assessment of two dose levels of Compound 1 (45 mg qHS Cohort 1 and 80 mg qHS Cohort, i.e., once daily administration at bedtime) administered for 7 days inpatient followed by 7 days outpatient. PRAX-114 was administered at 4 PM on Day 1 in order to collect post-dosing PK samples that could not be collected with qHS dosing.
(§1) In Part A, participants were administered daily doses of Compound 1 (45 mg Cohort and 80 mg Cohort) at 4 PM on Day 1 and qHS on all other study days for 7 days inpatient followed by 7 days outpatient (with subsequent Cohorts receiving up to 120 mg qHS). Participants checked into the clinic on Day 1. During this period the following assessments were performed: adverse event assessments, vital signs, physical examinations, blood and urine samples for safety assessments, ECGs, C-SSRS assessments, blood samples for PK, and efficacy assessments (HAM-D, MADRS, HAM-A, CGI [CGI-S and CGI-I], PSQI, and SDQ). Baseline assessments occurred on Day 1 prior to administration of study drug. On Day 8, prior to discharge, participants were supplied with sufficient Compound 1 to complete 7 days of dosing.
Patients were administered daily doses of Compound 1 for 7 days inpatient followed by 7 days outpatient.
In the 45 mg Cohort, patients were administered once daily dose of 45 mg of Compound 1 at bedtime for 7 days inpatient followed by once daily dose of 45 mg of Compound 1 at bedtime for 7 days outpatient.
In the 80 mg Cohort, patients were administered once daily dose of 80 mg of Compound 1 at bedtime for 7 days inpatient followed by once daily dose of 80 mg of Compound 1 at bedtime for 7 days outpatient.
Part A: In Part A, HAM-D, MADRS, HAM-A, CGI-S, and CGI-I values were collected in the morning of Days 1, 2, 3, 4, 5, 6, 7, 8, 15, 21 and 28. PSQI and SDQ values will be collected on Days 1, 8, 15, 21 and 28. Part B: In Part B, HAM-D, MADRS, HAM-A, CGI-S, CGI-I, PSQI and SDQ values will be collected on the days described for Part A.
HAM-D Response was defined as a reduction from baseline of >50% in total HAM-D score. HAM-D remission was defined as a total HAM-D score of <7.
Efficacy analysis: For both parts of the clinical trial, the HAM-D total score and change from baseline values will be summarized by treatment group and time point. In addition, the change from baseline in HAM-D total score will also be analyzed using paired t-tests or similar methods. The null hypothesis of this test is that the mean difference in HAM-D total score between paired observations (i.e., pre- and post-treatment) is zero. Similar analysis methods will be used for all secondary and exploratory efficacy variables.

[4] = human, in vivo, 30 mg
Description: (§12) A Food Effect Cohort (Cohort 4) was conducted to assess the effect of food on the PK profile of a single dose of Compound 1 when administered to healthy subjects. The subjects of Cohort 4 were treated with 30 mg of Compound 1 QD.
(§13) Cohort 4 subjects received a single 30 mg dose of a Compound 1 suspension on Days 1 and 5. The Day 1 dose was administered after a minimum of 10 hour fasting. No additional fluid intake was allowed until 1 hour after drug administration. A standard meal was given at least 4 hours post-dose. The Day 5 dose was administered following a high-fat, high calorie meal. Participants remained at the clinical site for a total of 8 days to complete PK sampling after the second dose.
as §9
(§14) Urine (Cohort 4): No urine analysis was conducted in Cohort 4.

[5] = Food Effect Cohort (Cohort 4) PK, single 30 mg dose fasted vs fed; settings: healthy subjects
Description: as §12, §13, §9, §14

[6] = Safety and tolerability in MDD patients, Part A; format: in vivo, human; settings: 80 mg Cohort
Description: as §1
Adverse events (AEs) will be monitored throughout the duration of the study.

[7] = Multiple escalating dose PK study of oral suspension in healthy subjects (Cohorts 1-3); settings: for t1/2: Day 14 steady state
Description: as §2, §3, §4, §5, §6, §7, §8, §9, §10, §11

[8] = Cohorts 1-3, 15-60 mg QD for 14 days

Structure (SMILES): COC[C@@]1(O)CC[C@@]2(C)[C@@H](CC[C@@H]3[C@@H]2CC[C@]2(C)[C@@H](C(=O)Cn4ccnc4)CC[C@@H]32)C1 [Compound 1, 3α-Hydroxy-3β-methoxymethyl-21-(1′-imidazolyl)-5α-pregnan-20-one]
- Serious Adverse Events [1, 8]: no Serious Adverse Events
- clinically relevant vital sign, ECG, or lab abnormalities [1, 8]: no clinically relevant vital sign, ECG, or lab abnormalities
- elevated mood ([1]; doses of 30 mg and 60 mg QD): several subjects experienced elevated mood
- increase in Cavg, AUCss and AUCinf with dose [2]: proportional increase
- increase in Cmax and AUC parameters at steady state with dose [2]: approximate proportional increase
- patients meeting HAM-D Response or Remission criterion ([3]; 45 mg Cohort (45 mg qHS), Day 7, 13 patients): 11 of the 13
- patients meeting HAM-D Response or Remission criteria ([3]; 45 mg Cohort (45 mg qHS), Day 15, 13 patients): 8 of the 13
- least squares Mean Change from Baseline in HAM-D score ([3]; 80 mg Cohort (80 mg qHS), Day 7): −20.0
- least squares Mean Change from Baseline in HAM-D score ([3]; 80 mg Cohort (80 mg qHS), Day 15): −16.0
- patients meeting HAM-D Response or Remission criteria ([3]; 80 mg Cohort (80 mg qHS), Day 15, 7 patients): 6 of the 7
- Efficacy (reduction Mean Change from Baseline in HAM-D score) ([3]; as monotherapy and in combination with another antidepressant): observed
- symptoms of MDD ([3]; daily dose of 45 mg or 80 mg, oral suspension, MDD patients): reduced symptoms of moderate to severe MDD
- Efficacy (reduction Mean Change from Baseline in HAM-D score) ([3]; patients undergoing first course of antidepressant treatment and patients that failed previous courses): observed
- Cmax higher under fasting conditions compared to fed [4]: 1.5-1.6 times
- Tmax under fasting compared to fed conditions [4]: tendency for a shorter Tmax
- AUCinf ([4]; po): 602.3 (304.84) h · ng/mL
- t1/2 ([5]; Fed (Day 1) n =10 as head prints, single 30 mg oral suspension after high-fat, high calorie meal, Mean (SD)): 11.26 (0.8641) h
- t1/2 fasted versus fed ([5]; single 30 mg dose): similar
- Adverse Event profile compared to the 45 mg Cohort [6]: no change in Adverse Event profile
- tolerability of the dose [6]: well tolerated
- t1/2 ([7]; Cohort 1, 15.0 mg QD oral suspension, Geo Mean): 14.613 h
- t1/2 ([7]; Cohort 1, 15.0 mg QD oral suspension, Mean): 14.77 ± 2.26 h
- t1/2 ([7]; Cohort 1, 15.0 mg QD oral suspension, Median): 15.26 h
- t1/2 ([7]; Cohort 2, 30.0 mg QD oral suspension, Geo Mean): 12.647 h
- t1/2 ([7]; Cohort 2, 30.0 mg QD oral suspension, Mean): 12.70 ± 1.23 h
- t1/2 ([7]; Cohort 2, 30.0 mg QD oral suspension, Median): 12.90 h
- Cmax ([7]; Cohort 2, 30.0 mg QD oral suspension, fasted, Day 1, Geometric Mean): 120.018 ng/mL
- accumulation factor of the dosing interval (ratio of AUCDay14/AUCDay1) ([7]; Cohort 3, 60.0 mg QD): 0.89
- t1/2 ([7]; Cohort 3, 60.0 mg QD oral suspension, Geo Mean): 12.164 h
- t1/2 ([7]; Cohort 3, 60.0 mg QD oral suspension, Mean): 12.23 ± 1.32 h
- t1/2 ([7]; Cohort 3, 60.0 mg QD oral suspension, Median): 12.42 h
